# According to patent US20130065227A1, “METHODS OF INCREASING MACROPINOCYTOSIS IN CANCER CELLS” (priority 2010, published 2013):
# {Fluor} = fluorophore: 5-carboxyfluorescein (FAM) or Alexa Fluor 488
# Columns and labels:
# most cancer cells tested = experiment: Cell death on continuous exposure; assay type: cell-based; settings: 10 μM AS1411
# Procedure: As described above, it is known that AS1411 can induce an unusual form of cell death in cancer cells. It was previously shown that G-rich oligonuclotides could induce cell death selectively in cancer cells compared to non-malignant cells, but it was noted that the morphology of the cells was inconsistent with death by apoptosis. The timing of cell death was also quite unusual, with continuous exposure (at 10 μM AS1411) for 7 days or more required to cause complete cell death for most cancer cells tested. […] However, cell death was also dose-dependent and occurred within hours in DU145 cells treated with 40 μM AS1411. Based on the various published reports, the cell death mechanism in U937 leukemia cells was investigated, and it was confirmed that cell death was not by apoptosis (FIG. 14 A-D). […] Although the same detailed studies of cell death have not been carried out in other cancer cell lines, it is consistently seen that AS1411-responsive cells die with a characteristic morphology (enlarged and vacuolated cells) without evidence of apoptosis.
# Hs27 = experiment: Uptake of AS1411 by macropinocytosis (MP); assay type: cell-based, human; settings: Non-cancer, skin fibroblasts
# Procedure: FIG. 2 are graphs showing that AS1411 is internalized by different endocytic mechanisms in DU145 cancer cells and in non-malignant Hs27 cells. DU145 or Hs27 cells were plated 18 h before uptake analysis. Cells were pre-treated as described with inhibitor (gray histogram) or the corresponding vehicle control (black histogram) before addition of 10 μM FL-AS1411 and incubation at 37° C. for 2 h. After incubation, cells were harvested and analyzed by flow cytometry. Pre-treatment conditions were at 37° C. with: (Panel A) 5 μM Cytochalasin D for 30 min; (Panel B) 80 μM Dynasore for 30 min; or (Panel C) 3 mM amiloride for 1 h. All experiments were repeated at least three times and representative data are shown. Solid gray histograms represent background autofluorescence of unstained cells.
# To analyze uptake of the oligodeoxynucleotides or dextran-10K (macropinocytic marker) by flow cytometry, 2×10^5 cells in fresh supplemented culture medium (2.5 ml) were plated into 6-well plates for 18 h. After complete adhesion, the cells were incubated with 5′-FAM tagged oligodeoxynucleotides or Alexa Fluor 488 tagged dextran-10K and incubated as indicated in the Description of the Drawings. Cells were washed once with ice-cold PBS, incubated with 1 μg/ml 7-amino-actinomycin D (7-AAD) for 5 min on ice or 1 μg/ml propidium iodide (PI), and washed twice with ice-cold PBS. […]
# MDA-MB-231 = experiment: Uptake of AS1411 by macropinocytosis (MP); assay type: cell-based; settings: MDA-MB-231; Cancer, breast
# Text: (§1) There was little effect of amiloride treatment on uptake of FL-CRO in either DU145 cancer cells or non-malignant Hs27 cells (FIG. 9B). […] These studies also confirmed the previous results that there was higher overall uptake of FL-AS1411 in Hs27 cells than in DU145 cells.
# (§2) It has recently been discovered that AS1411 can stimulate macropinocytosis (MP) in cancer cells and this finding was verified by several different methods and in multiple cancer cell lines (Table 1).
# MCF7 = experiment: Uptake of AS1411 by macropinocytosis (MP); assay type: cell-based; settings: MCF7; Cancer, breast
# Text: as §1, §2
# [1] = test system: cancer cells (DU145, HeLa, MDA-MB-231) and non-malignant Hs27 skin fibroblasts; experiment: Temperature-dependence of oligonucleotide uptake by flow cytometry; assay type: cell-based; settings: 10 μM, 37° C. or 4° C. for 2 h, all cell types
# Procedure: FIG. 1 are graphs showing that AS1411 cell internalization is an active process. Cells were plated 18 h before uptake analysis. After incubation as described, cells were washed with ice-cold PBS, incubated with 1 μg/ml 7-AAD, harvested and resuspended in 1% paraformaldehyde containing 2 μg/ml actinomycin D, then analyzed by flow cytometry. (Panel A) DU145 cells were incubated at 37° C. with fresh complete DMEM medium containing 10 μM FL-AS1411 (black line) or 10 μM FL-CRO (gray line) for the time indicated. (Panel B) DU145 cells were incubated for 2 h at 37° C. in complete or serum-free DMEM medium containing 10 μM FL-AS1411, or 10 μM FL-CRO, or no oligonucleotide. (Panel C) Various cell lines were incubated with 10 μM FL-AS1411 (black outline histogram), 10 μM FL-CRO (gray outline histogram) or without DNA (solid gray histogram) at 37° C. or 4° C. for 2 h. All experiments were repeated at least three times. Data are mean of three independent samples; bars, SE; *(p<0.05). […]
# To determine whether AS1411 uptake occurs through an active uptake process, the temperature-dependence of AS1411 uptake in cancer cells (DU145, HeLa, MDA-MB-231) and non-malignant Hs27 skin fibroblasts was evaluated using flow cytometry. […]
Substance,continuous exposure required to cause complete cell death (most cancer cells tested) [days],Update by MP? (Hs27),Update by MP? (MDA-MB-231),Update by MP? (MCF7),temperature dependence of uptake [1]
5′-d(GGTGGTGGTGGTTGTGGTGGTGGTGG) [AS1411],≥ 7,No,Yes,Yes,–
"5′-Fluor-d(TTTCCTCCTCCTCCTTCTCCTCCTCCTCC) (DNA TTTCCTCCTCCTCCTTCTCCTCCTCCTCC; DNA, 5' {Fluor}, backbone and methylation of C not given here) [FL-CRO, reference compound]",–,–,–,–,strong temperature dependence
